Data as given in patent US11219625B2, “Inhibitors of N-linked glycosylation and methods using same” (YALE UNIVERSITY, priority 2015, dated 2022).

Key:
Format in all cases: cell-based
[1] = tested on: lipid linked oligosaccharides (LLOs); test: FACE analysis of lipid linked oligosaccharides; details: FACE, FIG. 2B
Description: Fluorophore assisted carbohydrate electrophoresis (FACE) was performed as previously described (Gao, et al., Glycobiology 2002, 12, 353-360; Gao, et al., J Biol Chem 2005, 280, 17901-17909). Control (Ac-Gln-Tyr-Thr-CONH2) and acceptor (Ac-Asn-Tyr-Thr-CONH2) peptides were used for permeabilized cell experiments. Metabolic labeling of Hela cells, transfection of prosaposin (pSAP) and steroid hormone binding globulin (SHBG) vectors, and knockdown of SIT3A and STT3B to monitor N-linked glycosylation knockdown were performed as described (Shrimal, et al., J Cell Biol 2013, 201, 81-95). Western blot analysis was performed as previously described (Bennett, et al., Transl Oncol 2013, 6, 382-391). The following primary antibodies were used: rabbit anti-EGFR (sc-03; Santa Cruz Biotechnology; 1:1000), rabbit anti-phospho (Tyr1173) EGF Receptor (Cell Signaling; 1:1000), rabbit anti-p21 Waf1/Cip1 (12D1; Cell Signaling; 1:1000), rabbit anti-Cyclin D1 (Cell Signaling; 1:1000), mouse anti-β-Actin (8H10D10; Cell Signaling; 1:1000). For phospho-protein array analysis, PC9 and A549 cells were cultured in 6-well plates in serum-containing medium and treated with or without 10 μM NGI-1 for 24 hours. […]

PC9 cells [2] = test: Apoptosis by flow cytometry (Annexin-V, 7-AAD), PC9; details: PC9, NGI-1 10 μM for 2 or 5 days, or Tn 1 μM
Description: (§1) Analysis of apoptosis susceptibility in A549 and PC9 NSCLC cell lines followed treatment with NGI-1 10 μM or Tn 1 μM for 2 days was done by flow cytometry after staining the cells with Annexin-V (early apoptosis) and 7-AAD (viability dye). […] FIG. 9C: Western blot of BIP protein for A549 and PC9 cells after treatment with 10 μM NGI-1 for 6, 12 or 24 h. The expression of GAPDH was used as a loading control.

A549 cells [3] = test: MTT proliferation assay, A549; details: A549, 10 μM NGI-1 or 1 μM tunicamycin
Description: (§2) FIGS. 4A-4H illustrate the finding that NGI-1 blocks RTK driven proliferation. FIG. 4A illustrates western blot analysis of EGFR phosphorylation (Y1173) and gel mobility in PC9 (EGFR-mutant) and A549 (k-ras mutant) NSCLC cells after 10 μM NGI-1 treatment for 24 h. […] Actin expression was used as a control for protein loading. FIG. 4B illustrates MTT assays results of PC9 following treatment with 10 μM NGI-1 or 1 μM tunicamycin for a total of 5 d. Relative proliferation id reported in fold increase from day 0. FIG. 4C illustrates MTT assays results of A549 following treatment with 10 μM NGI-1 or 1 μM tunicamycin for a total of 5 d. Relative proliferation id reported in fold increase from day 0. FIG. 4D illustrates protein phosphorylation profiles of PC9 cells analyzed by phospho-protein array to assess the response of PC9 to 10 μM NGI-1 for 24 h. FIG. 4E illustrates protein phosphorylation profiles of A549 cells analyzed by phospho-protein array to assess the response of A549 to 10 μM NGI-1 for 24 h. […]
(§3) Growth rates were determined by CellTiter 96 NonRadioactive Cell Proliferation Assay (Promega; Madison, Wis. USA) according to the manufacturer's directions. […] Cell numbers were estimated after 0, 3, and 5 days by adding MTT [(3-(4,5-Dimethylthiazol-2-yl)-2,5-diphenyltetrazolium bromide] reagent to the wells 4 hours before taking the spectrophotometric reading (absorbance at 570 nm).

A549 cells [4] = test: Apoptosis by flow cytometry (Annexin-V, 7-AAD), A549; details: A549, NGI-1 10 μM for 2 or 5 days, or Tn 1 μM
Description: as §1

PC9 cells [5] = test: MTT proliferation assay, PC9; details: PC9, 1 μM tunicamycin
Description: as §2, §3

tunicamycin [reference compound] was tested, and the “effect on LLO production” value [1] was “blocked all LLO production”, the induction of apoptosis (PC9 cells [2]) was “apoptosis was activated” and the “effect on proliferation, MTT” value (A549 cells [3]) was “immediately blocks proliferation in both cell lines”. The induction of apoptosis (A549 cells [4]) was “apoptosis was activated” and the “effect on proliferation, MTT” value (PC9 cells [5]) was “immediately blocks proliferation in both cell lines”.
